According to patent US6365616B1, “Methimazole derivatives and tautomeric cyclic thiones to treat autoimmune diseases” (Sentron Medical, Inc., priority 1998, dated 2002):
Like-named read-outs stand apart in the source and are kept apart here.

B1: γ-IFN: rat recombinant γ-interferon, 100 U/ml, used to increase MHC class I and class II expression in FRTL-5 cells (protein, UniProt P01581 23-156, looked up)
Interferon gamma: QGTLIESLESLKNYFNSSSMDAMEGKSLLLDIWRNWQKDGNTKILESQIISFYLRLFEVLKDNQAISNNISVIESHLITNFFSNSKAKKDAFMSIAKFEVNNPQIQHKAVNELIRVIHQLSPESSLRKRKRSRC

Tested on: swine class I promoter (PD1)
Experiment: Transient transfection CAT assay, class I promoter chimeras in FRTL-5 cells
Format: cell-based
Conditions: for inhibition at 10 µM / inhibition at 25 µM / inhibition at 100 µM / inhibition at 1000 µM / inhibition at 5000 µM: Sus scrofa; for CAT activity +γIFN (100 U/ml) + MMI (5 mM) / CAT activity +γIFN (100 U/ml): 5H medium
Text: The full length PD1 promoter, PD1 CAT construct pH […], inserted into the multicloning site of pSV3CAT, has been previously described (Erhlich, R. et al. Immunogenetics 30:18-26 (1989)). […] The deletion series was also cloned into the pSV3CAT reporter construct to assess promoter activities (Weisman J D, et al. ibid (1991); Maguire, J. et al., Mol. Cell. Biol., 12:3078-3086 (1992)). […] The number denotes the most 5′-residue in the 5′-flanking region of the PD1 promoter.
FRTL-5 rat thyroid cells (Interthyr Research Foundation, Baltimore, Md.; ATCC CRL8305) were the same subclone (F1) used in the gel shift experiments described earlier. They were grown in the following medium: Coon's modified F-12 medium containing 5% heat-treated, mycoplasma-free calf serum, 1 mM nonessential amino acids, and a mixture of six hormones (6H) containing bovine TSH (1×10^−10M), insulin (10 μg/ml), cortisol (0.4 ng/ml), transferrin (5 μg/ml), glycyl-L-histidyl-L-lysine acetate (10 ng/ml), and somatostatin (10 ng/ml). Cells were diploid and between their 5th and 25th passage. Fresh medium was added every 2 or 3 days and cells were passaged every 7-10 days. In some experiments, cells were grown to near confluency in 6H medium then maintained for 5-8 days, before experiments were initiated, in 5H medium with no TSH.
To measure the promoter activity of MHC class I promoter constructs, as reported by CAT activity, two procedures were used. In one, rat FRTL-5 thyroid cells were transfected by the electroporation method described previously (Saji, M., et al., ibid (1992b); Giuliani, C., et al., ibid (1995); Saji, M., et al., ibid (1997)). In brief, FRTL-5 cells were grown to 80% confluence, put in fresh 6H medium containing 5% calf serum for 12 hours, harvested, washed and suspended at 1.5×10^7 cells/mil in 0.8 ml electroporation buffer (272 mM sucrose, 7 mM sodium phosphate at pH 7.4, and 1 mM MgCl2). Twenty μg of the full-length CAT construct were added with 5 μg pSVGH. Cells were then pulsed (330 volts, capacitance 25 μfarad), plated (approximately 6×10^6 cell/dish), and cultured for 12 hours in 6H medium containing 5% calf serum. […] After 48 hours they were harvested. […] Medium was taken for hGH radioimmunoassay to monitor transfection efficiency (Nichols Institute, San Juan Capistrano, Calif.) and cells were harvested for CAT assays which used 20-50 μg cell lysate in a final volume of 130 μl. Incubation was at 37° C. for 2 or 4 hours; acetylated chloramphenicol was separated by thin layer chromatograpy (TLC) and positive spots on TLC plates were cut out and quantitated in a scintillation spectrometer. CAT activity was normalized to GH activity and/or cell protein before data were compared.
Alternatively transient transfections used the same class I-CAT chimeras and a DEAE-dextran procedure (Lopata M A, et al., Nucleic Acids Res. 12:5707-5717 (1984); Giuliani C, et al., ibid (1995)). Cells were grown to near (80%) confluency in 6H medium, shifted to 5H medium for 1 day, washed twice with Dulbecco's modified phosphate buffered saline (DPBS), pH 7.4, and incubated 1 hour with 5 ml serum-free 5H medium containing the plasmid DNA plus 250 μg DEAE-dextran (5 Prime-3 Prime, Inc.). Cells were then exposed to 10% dimethylsulfoxide in DPBS for 3 min., washed twice in DPBS, cultured in 5H medium for 24 hours, then maintained therein another 48 hours with or without MMI, MMI derivatives or tautomeric cyclic thiones, as noted. Efficiency of transfection was determined by cotransfection as above or with 5 μg pRSVLuc (De Wet J R, et al., Mol. Cell. Biol. 7:725-737 (1987)).
In this experiment, FRTL-5 cells were grown to near confluency in 6H medium (plus TSH) and then were maintained in 5H medium (no TSH) for 7 days before being treated with γ-IFN or γ-IFN plus MMI for 40 hours. Control cells were those maintained in 5H medium for the same 40 hours. CAT activity was measured as described above.

[1] = FRTL-5, 10 μM, 100 U/ml γ-interferon, 6H medium, 40 hours, read-out: % inhibition of IFN-increased p(−203)CAT class I promoter activity
[2] = FRTL-5, 25 μM, 6H medium, 36 hours, read-out: % inhibition of basal p(−203)CAT class I promoter activity
[3] = FRTL-5, 100 μM, 6H medium, 36 hours, read-out: % inhibition of basal p(−203)CAT class I promoter activity
[4] = FRTL-5, 100 μM, 100 U/ml γ-interferon, 6H medium, 40 hours, read-out: % inhibition of IFN-increased p(−203)CAT class I promoter activity
[5] = FRTL-5, 1.0 mM, 6H medium, 36 hours, read-out: % inhibition of basal p(−203)CAT class I promoter activity
[6] = FRTL-5, 1.0 mM, 100 U/ml γ-interferon, 6H medium, 40 hours, read-out: % inhibition of IFN-increased p(−203)CAT class I promoter activity
[7] = FRTL-5, 5 mM, 6H medium, 36 hours, read-out: % inhibition of basal p(−203)CAT class I promoter activity
[8] = FRTL-5, 5 mM, 100 U/ml γ-interferon, 6H medium, 40 hours, read-out: % inhibition of IFN-increased p(−203)CAT class I promoter activity
[9] = 10 μM, 100 U/ml γ-interferon, 6H medium, 40 hours
[10] = 100 μM, 100 U/ml γ-interferon, 6H medium, 40 hours
[11] = 1.0 mM, 100 U/ml γ-interferon, 6H medium, 40 hours
[12] = 5 mM, 100 U/ml γ-interferon, 6H medium, 40 hours
[13] = FRTL-5, read-out: % inhibition of IFN-increased p(−203)CAT class I promoter activity
[14] = FRTL-5, read-out: % inhibition of basal p(−203)CAT class I promoter activity

Row | Molecule | inhibition at 10 µM [1] | inhibition at 25 µM [2] | inhibition at 100 µM [3] | inhibition at 100 µM [4] | inhibition at 1000 µM [5] | inhibition at 1000 µM [6] | inhibition at 5000 µM [7] | inhibition at 5000 µM [8] | other results
1 | Cc1cnc(S)n1C [Compound 9, 5-Methylmethimazole] | 0% | 0% | 0% | 0% | 14 ± 10% | 10 ± 10% | 25 ± 7% | 29 ± 11% | –
2 | Cc1ncc([N+](=O)[O-])n1CCO [Compound 2, 2-Methyl-5-nitro-1-imidazole ethanol] | 0% | 0% | 10 ± 8% | 0% | 37 ± 11% | 45 ± 5% | 74 ± 9% | 84 ± 13% | –
3 | CSc1nccn1C [Compound 7, S-Methylmethimazole] | 0% | 0% | 10 ± 9% | 14 ± 11% | 51 ± 6% | 50 ± 13% | 68 ± 8% | 58 ± 12% | –
4 | Cn1c(-c2ccccc2)cnc1S [Compound 10, 5-Phenylmethimazole] | 35 ± 10% | 45 ± 9% | 71 ± 6% | 81 ± 14% | 92 ± 12% | 90 ± 13% | – | – | –
5 | Sc1ncc[nH]1 [Compound 3, 2-Mercaptoimidazole] | – | – | – | – | – | – | – | – | % inhibition of IFN-increased p(−203)CAT class I promoter activity [9]: None; % inhibition of IFN-increased p(−203)CAT class I promoter activity [10]: None; % inhibition of IFN-increased p(−203)CAT class I promoter activity [11]: None; % inhibition of IFN-increased p(−203)CAT class I promoter activity [12]: None
6 | Cn1ccn(C)c1=S [Compound 8, N-Methylmethimazole] | – | – | – | – | – | – | – | – | % inhibition of IFN-increased p(−203)CAT class I promoter activity [9]: 0%; % inhibition of basal p(−203)CAT class I promoter activity (25 μM, 6H medium, 36 hours): 5 ± 5%; % inhibition of basal p(−203)CAT class I promoter activity (100 μM, 6H medium, 36 hours): 48 ± 10%; % inhibition of IFN-increased p(−203)CAT class I promoter activity [10]: 38 ± 9%; % inhibition of basal p(−203)CAT class I promoter activity (1.0 mM, 6H medium, 36 hours): 72 ± 6%; % inhibition of IFN-increased p(−203)CAT class I promoter activity [11]: 69 ± 7%; % inhibition of basal p(−203)CAT class I promoter activity (5 mM, 6H medium, 36 hours): 87 ± 11%; % inhibition of IFN-increased p(−203)CAT class I promoter activity [12]: 77 ± 14%
7 | Sc1nc2ccccc2[nH]1 [Compound 4, 2-Mercaptobenzimidazole] | – | – | – | – | – | – | – | – | inhibition at 10 µM [13]: 0%; inhibition at 100 µM [13]: 0%; inhibition at 1000 µM [13]: 40 ± 8%; inhibition at 5000 µM [13]: 76 ± 10%; inhibition at 25 µM [14]: 0%; inhibition at 100 µM [14]: 0%; inhibition at 1000 µM [14]: 50 ± 12%; inhibition at 5000 µM [14]: 90 ± 14%
8 | Cc1ccc2[nH]c(S)nc2c1 [Compound 6, 2-Mercapto-5-methylbenzimidazole] | – | – | – | – | – | – | 57 ± 13% | 49 ± 7% | –
9 | Cn1ccnc1S [Compound 1, 1-Methylimidazole-2-thiol] | 0% | 0% | 0% | 0% | 32 ± 7% | 35 ± 8% | 74 ± 10% | 72 ± 12% | CAT activity +γIFN (100 U/ml) + MMI (5 mM) (chimera p(−127), 40 hours): 55 ± 4 % of Control; CAT activity +γIFN (100 U/ml) + MMI (5 mM) (chimera p(−203), 40 hours): 95 ± 26 % of Control; CAT activity +γIFN (100 U/ml) + MMI (5 mM) (chimera p(−1100), 40 hours): 163 ± 48 % of Control; CAT activity +γIFN (100 U/ml) + MMI (5 mM) (pSV0 control plasmid, 40 hours): 38 ± 9 % of Control
10 | O=[N+]([O-])c1ccc2[nH]c(S)nc2c1 [Compound 5, 2-Mercapto-5-nitrobenzimidazole] | – | – | – | – | – | – | 45 ± 8% | 43 ± 9% | –
11 | B1 | – | – | – | – | – | – | – | – | CAT activity +γIFN (100 U/ml) (chimera p(−127), 40 hours): 500 ± 27 % of Control; CAT activity +γIFN (100 U/ml) (chimera p(−203), 40 hours): 750 ± 25 % of Control; CAT activity +γIFN (100 U/ml) (chimera p(−1100), 40 hours): 460 ± 40 % of Control; CAT activity +γIFN (100 U/ml) (pSV0 control plasmid, 40 hours): 48 ± 7 % of Control
